These results are taken from patent US20090041823A1, “Agent-releasing Vascular Prosthesis” (priority 2003, published 2009).

For the series, the system named is intimal hyperplasia. As to the kind of experiment: Patch plasty implantation at the iliac bifurcation, animal model. In kind it is in vivo, mini-pigs of the Gottingen type. The method, then: In a last step the prostheses were implanted in a preliminary animal trial in order to show the impact on intimal hyperplasia. Six mini-pigs of the Gottingen type were used as test animals. The Aa iliacae was prepared by a transperitonial access under general i.v. anaesthesia (Thiopental®) and each a multifunctional and a standard prosthesis were introduced into every animal. All animals obtained an antibiotic prophylaxis (Spizef®) and were anticoagulized with heparin.
As medicaments each of paclitaxel, sirolimus and IS was used twice. We have applied patch plasties as the border line between prosthesis and artery is bigger compared to end-to-end anastomoses and we could thus assess intimal hyperplasia in cross-section very well. The animals were again subjected to surgery after six weeks and the iliac bifurcation was explanted. Samples in longitudinal direction were derived from the patch plastics in the proximal and in the distal region, respectively, and samples in transversal direction were derived from the medium region. These samples were fixed in formaldehyde. The further processing comprised dehydration in an increasing alcohol series until embedding into paraffin. The preparations were cut and stained in HE and Tri-PAS. Apart from the extent of IH, also integration and inflammatory reactions were assessed.

On to `CC(=O)O[C@H]1C(=O)[C@@]2(C)[C@H]([C@H](OC(=O)c3ccccc3)[C@]3(O)C[C@H](OC(=O)[C@H](O)[C@@H](NC(=O)c4ccccc4)c4ccccc4)C(C)=C1C3(C)C)[C@]1(OC(C)=O)CO[C@@H]1C[C@@H]2O` [paclitaxel], for which the “integration of the prosthesis” value (explanted after 6 weeks) is given as “well integrated from outside”. For the same compound, where the note is “patch plasty, explanted after six weeks”, the endothelialization entry is listed as “complete suppression of endothelialization”.
